COc1ccc(Cl)cc1C(=O)NCCc1ccc(S(=O)(=O)NC(=O)NC2CCCCC2)cc1
solubility (mole fraction)
Conditions	288.15 K	293.15 K	298.15 K	303.15 K	308.15 K	313.15 K	318.15 K	323.15 K
in acetonitrile	8e-05	0.000106	0.000144	0.000184	0.000231	0.0003	0.00043	0.000571
in isopropanol	0.000106	0.000121	0.000168	0.000231	0.000309	0.000404	0.000577	0.000863
in methanol	0.000181	0.000229	0.000289	0.000365	0.000451	0.000614	0.000941	0.00131
in n-propanol	0.000155	0.000193	0.000237	0.000302	0.000428	0.000572	0.000751	0.00097
in water	9.02e-08	1.02e-07	1.26e-07	1.57e-07	2.18e-07	3.04e-07	4.35e-07	7.67e-07

From BigSolDB 2.1
